Experimental data published in PubChem BioAssay (NCI).
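Five concentrations, 48 hours, 96-well plates. GI50 is the concentration that inhibits growth by half. TGI marks complete inhibition of growth.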

Legend:
Experiment in all cases: NCI tumour cell line growth inhibition, 48 h
786-0 renal = system: 786-0 renal
A498 renal = system: A498 renal
A549 NSCLC = system: A549 NSCLC
ACHN renal = system: ACHN renal
BT-549 breast = system: BT-549 breast
CAKI-1 renal = system: CAKI-1 renal
CCRF-CEM leukemia = system: CCRF-CEM leukemia
COLO 205 colon = system: COLO 205 colon
DU-145 prostate = system: DU-145 prostate
EKVX NSCLC = system: EKVX NSCLC
HCC-2998 colon = system: HCC-2998 colon
HCT-116 colon = system: HCT-116 colon
HCT-15 colon = system: HCT-15 colon
HL-60(TB) leukemia = system: HL-60(TB) leukemia
HOP-62 NSCLC = system: HOP-62 NSCLC
HOP-92 NSCLC = system: HOP-92 NSCLC
HS 578T breast = system: HS 578T breast
HT29 colon = system: HT29 colon
IGROV1 ovarian = system: IGROV1 ovarian
K-562 leukemia = system: K-562 leukemia
KM12 colon = system: KM12 colon
LOX IMVI melanoma = system: LOX IMVI melanoma
M14 melanoma = system: M14 melanoma
MALME-3M melanoma = system: MALME-3M melanoma
MCF7 breast = system: MCF7 breast
MDA-MB-231 breast = system: MDA-MB-231 breast
MDA-MB-435 = system: MDA-MB-435
MDA-MB-468 breast = system: MDA-MB-468 breast
MOLT-4 leukemia = system: MOLT-4 leukemia
NCI-H226 lung = system: NCI-H226 lung
NCI-H23 lung = system: NCI-H23 lung
NCI-H460 lung = system: NCI-H460 lung
NCI-H522 lung = system: NCI-H522 lung
NCI/ADR-RES ovarian = system: NCI/ADR-RES ovarian
OVCAR-3 ovarian = system: OVCAR-3 ovarian
OVCAR-4 ovarian = system: OVCAR-4 ovarian
OVCAR-5 ovarian = system: OVCAR-5 ovarian
OVCAR-8 ovarian = system: OVCAR-8 ovarian
PC-3 prostate = system: PC-3 prostate
RPMI-8226 leukemia = system: RPMI-8226 leukemia
SF-268 CNS = system: SF-268 CNS
SF-295 CNS = system: SF-295 CNS
SF-539 CNS = system: SF-539 CNS
SK-MEL-2 melanoma = system: SK-MEL-2 melanoma
SK-MEL-28 melanoma = system: SK-MEL-28 melanoma
SK-MEL-5 melanoma = system: SK-MEL-5 melanoma
SK-OV-3 ovarian = system: SK-OV-3 ovarian
SN12C renal = system: SN12C renal
SNB-19 CNS = system: SNB-19 CNS
SNB-75 CNS = system: SNB-75 CNS
SR leukemia = system: SR leukemia
SW-620 colon = system: SW-620 colon
T-47D breast = system: T-47D breast
TK-10 renal = system: TK-10 renal
U251 CNS = system: U251 CNS
UACC-257 melanoma = system: UACC-257 melanoma
UACC-62 melanoma = system: UACC-62 melanoma
UO-31 renal = system: UO-31 renal

C#CCCCN(CCNc1ccnc2cc(Cl)ccc12)C(=O)CCC(=O)O[C@@H]1O[C@@H]2OC3(C)CC[C@H]4[C@H](C)CC[C@@H]([C@H]1C)[C@@]24OO3
GI50 (786-0 renal): 5.67 µM
TGI (786-0 renal): > 11.5 µM
GI50 (A498 renal): > 11.5 µM
TGI (A498 renal): > 11.5 µM
GI50 (A549 NSCLC): 7.37 µM
TGI (A549 NSCLC): > 11.5 µM
GI50 (ACHN renal): 2.18 µM
TGI (ACHN renal): > 11.5 µM
GI50 (BT-549 breast): 1.27 µM
TGI (BT-549 breast): > 11.5 µM
GI50 (CAKI-1 renal): 8.21 µM
TGI (CAKI-1 renal): > 11.5 µM
GI50 (CCRF-CEM leukemia): 0.697 µM
TGI (CCRF-CEM leukemia): > 11.5 µM
GI50 (COLO 205 colon): 1.39 µM
TGI (COLO 205 colon): > 11.5 µM
GI50 (DU-145 prostate): 8.95 µM
TGI (DU-145 prostate): > 11.5 µM
GI50 (EKVX NSCLC): 1.03 µM
TGI (EKVX NSCLC): > 11.5 µM
GI50 (HCC-2998 colon): 2.72 µM
TGI (HCC-2998 colon): > 11.5 µM
GI50 (HCT-116 colon): 0.554 µM
TGI (HCT-116 colon): > 11.5 µM
GI50 (HCT-15 colon): 0.337 µM
TGI (HCT-15 colon): > 11.5 µM
GI50 (HL-60(TB) leukemia): 0.364 µM
TGI (HL-60(TB) leukemia): 1.82 µM
GI50 (HOP-62 NSCLC): > 11.5 µM
TGI (HOP-62 NSCLC): > 11.5 µM
GI50 (HOP-92 NSCLC): 0.581 µM
TGI (HOP-92 NSCLC): 6.74 µM
GI50 (HS 578T breast): 1.83 µM
TGI (HS 578T breast): > 11.5 µM
GI50 (HT29 colon): 0.701 µM
TGI (HT29 colon): > 11.5 µM
GI50 (IGROV1 ovarian): 3.01 µM
TGI (IGROV1 ovarian): > 11.5 µM
GI50 (K-562 leukemia): 0.448 µM
TGI (K-562 leukemia): > 11.5 µM
GI50 (KM12 colon): 0.572 µM
TGI (KM12 colon): > 11.5 µM
GI50 (LOX IMVI melanoma): 0.676 µM
TGI (LOX IMVI melanoma): 2.82 µM
GI50 (M14 melanoma): 4.86 µM
TGI (M14 melanoma): > 11.5 µM
GI50 (MALME-3M melanoma): 2.56 µM
TGI (MALME-3M melanoma): > 11.5 µM
GI50 (MCF7 breast): 0.805 µM
TGI (MCF7 breast): > 11.5 µM
GI50 (MDA-MB-231 breast): 9.5 µM
TGI (MDA-MB-231 breast): > 11.5 µM
GI50 (MDA-MB-435): 0.772 µM
TGI (MDA-MB-435): > 11.5 µM
GI50 (MDA-MB-468 breast): 1.74 µM
TGI (MDA-MB-468 breast): 5.49 µM
GI50 (MOLT-4 leukemia): 0.527 µM
TGI (MOLT-4 leukemia): 5.82 µM
GI50 (NCI-H226 lung): 3.76 µM
TGI (NCI-H226 lung): > 11.5 µM
GI50 (NCI-H23 lung): 1.08 µM
TGI (NCI-H23 lung): > 11.5 µM
GI50 (NCI-H460 lung): 5.09 µM
TGI (NCI-H460 lung): > 11.5 µM
GI50 (NCI-H522 lung): 0.788 µM
TGI (NCI-H522 lung): > 11.5 µM
GI50 (NCI/ADR-RES ovarian): 1.83 µM
TGI (NCI/ADR-RES ovarian): > 11.5 µM
GI50 (OVCAR-3 ovarian): 0.876 µM
TGI (OVCAR-3 ovarian): > 11.5 µM
GI50 (OVCAR-4 ovarian): 1.39 µM
TGI (OVCAR-4 ovarian): > 11.5 µM
GI50 (OVCAR-5 ovarian): 0.974 µM
TGI (OVCAR-5 ovarian): > 11.5 µM
GI50 (OVCAR-8 ovarian): 1.04 µM
TGI (OVCAR-8 ovarian): > 11.5 µM
GI50 (PC-3 prostate): 0.194 µM
TGI (PC-3 prostate): > 11.5 µM
GI50 (RPMI-8226 leukemia): 0.399 µM
TGI (RPMI-8226 leukemia): > 11.5 µM
GI50 (SF-268 CNS): 7.45 µM
TGI (SF-268 CNS): > 11.5 µM
GI50 (SF-295 CNS): 1.87 µM
TGI (SF-295 CNS): > 11.5 µM
GI50 (SF-539 CNS): 3.99 µM
TGI (SF-539 CNS): > 11.5 µM
GI50 (SK-MEL-2 melanoma): 4.93 µM
TGI (SK-MEL-2 melanoma): > 11.5 µM
GI50 (SK-MEL-28 melanoma): 2.64 µM
TGI (SK-MEL-28 melanoma): > 11.5 µM
GI50 (SK-MEL-5 melanoma): 1.18 µM
TGI (SK-MEL-5 melanoma): 8.98 µM
GI50 (SK-OV-3 ovarian): > 11.5 µM
TGI (SK-OV-3 ovarian): > 11.5 µM
GI50 (SN12C renal): 3.06 µM
TGI (SN12C renal): > 11.5 µM
GI50 (SNB-19 CNS): 7.16 µM
TGI (SNB-19 CNS): > 11.5 µM
GI50 (SNB-75 CNS): > 11.5 µM
TGI (SNB-75 CNS): > 11.5 µM
GI50 (SR leukemia): 0.475 µM
TGI (SR leukemia): 9.37 µM
GI50 (SW-620 colon): 0.643 µM
TGI (SW-620 colon): > 11.5 µM
GI50 (T-47D breast): 0.402 µM
TGI (T-47D breast): > 11.5 µM
GI50 (TK-10 renal): 8.12 µM
TGI (TK-10 renal): > 11.5 µM
GI50 (U251 CNS): 2.73 µM
TGI (U251 CNS): > 11.5 µM
GI50 (UACC-257 melanoma): 2.3 µM
TGI (UACC-257 melanoma): > 11.5 µM
GI50 (UACC-62 melanoma): 0.878 µM
TGI (UACC-62 melanoma): > 11.5 µM
GI50 (UO-31 renal): 1.19 µM
TGI (UO-31 renal): > 11.5 µM
